Measured values from patent US10245240B2, “Treatment of prostate carcinoma” (Pellficure Pharmaceuticals, Inc., priority 2010, dated 2019).

How the values were obtained:
[1] = test system: P388 lymphocytic leukemia; settings: cited from earlier work
[2] = test system: PTEN-P2/GFP mouse cancer cells; assay: Dose response plumbagin in PTEN-P2/GFP cells, cell counting with or without DHT; type: cell-based; settings: for % control / Average % control: 24 hours; for Average % control: mean of two experiments
Method: Cell counting: Cells in 12-well plates are washed once with PBS, detached using Trypsin, and transferred to a suspension vial in a final volume of 10 ml PBS. Cells are counted using a COULTER™ Multisizer II instrument (Beckman Coulter Inc., Hialeah, Fla.) gated for the appropriate cell size and corrected for particulate debris.
PTEN-P2/GFP mouse cancer cells were placed in androgen withdrawal medium in the presence or absence of DHT (dihydrotestosterone) at a final concentration of 10^−8 M. Plumbagin was added at the indicated concentrations for 24 hours. The absence of DHT simulates surgical or chemical castration. Cells were trypsinized and counted using a Cell Coulter counter Multisizer II, which excludes debris. Results represent cell numbers as percent of control (in which the number of cells in the absence of drug is 100%).
Androgen withdrawal medium: DMEM high-glucose phenol-red free, with the following additives: 10% charcoal-treated Fetal Bovine Serum, 25 ug/ml bovine pituitary extract, 5 ug/ml insulin, 6 ng/ml EGF recombinant.

PTEN-P2/GFP tumor = assay: In vivo effect of plumbagin combined with castration, pseudo-orthotopic chamber model (Example 5); parameters: species or system nude mice
Method: Animal model and surgical techniques: Animal experiments have been approved as appropriate. All surgical procedures are performed in a sterile laminar flow hood. Dorsal skinfold chambers and surgical instruments are autoclaved before use. Saline used to keep tissue moist during surgical preparation is mixed with gentamicin ([…]).
Male Nude mice (25-35 g body weight) are anesthetized (7.3 mg ketamine hydrochloride and 2.3 mg xylazine/100 g body weight, i.p.) and placed on a heating pad. Two symmetrical titanium frames are implanted into a dorsal skinfold, so as to sandwich the extended double layer of skin. A 15 mm full thickness circular layer is excised. The underlying muscle (M. cutaneous max.) and subcutaneous tissues are covered with a glass coverslip incorporated in one of the frames. After a recovery period of 2-3 days, prostate tissue and cancer cell spheroids are carefully placed in the chamber. Small circular Band Aids are applied on the backside of the chamber after surgery to prevent scratching. Before surgery, Buprenorphine (0.1 mg/kg) will be given IP. After surgery Meloxicam will be given in the drinking water for 4 days Meloxicam (5.0 mg/ml), is added at 35 μl per 100 ml of water to be medicated.
Preparation of stroma: A male donor mouse is euthanized and the anterior prostate tissue is excised, put in a Petri dish with antibiotics (gentamicin 50 μl/ml), and minced with fine scissors into small pieces (<1 mm^2) for implantation.
Preparation of tumor spheroids: Liquid overlay plates are generated using 1% Agarose melted in DMEM that is added to round-bottom 96-well plates (50 ul/well). […] Viability is determined using Trypan blue. […]. The size of the implanted spheroid can be determined precisely to minimize variations between animals. […]
Intravital microscopy: Fluorescence microscopy is performed using a Mikron Instrument Microscope equipped with epi-illuminator and video-triggered stroboscopic illumination from a xenon arc (MV-7600, EG&G). […]

Which ED50 [1] does the source give for `CC1=CC(=O)c2c(O)cccc2C1=O` [Plumbagin, 5-hydroxy-2-methylnaphthalene-1,4-dione] here?
Its ED50 is 4 mg/kg body weight.

And the “efficiency of plumbagin with simulated castration (no DHT) versus plumbagin alone” value ([2]; in vitro, PTEN-P2/GFP cells)?
Its value is “more efficient than treatment with plumbagin alone”.

What about the “% control” value ([2]; noDHT, 1 μM plumbagin, first experiment) of the same compound?
The value was 73.70%.

And the Average % control ([2]; noDHT, 1 μM plumbagin)?
Its Average % control is 84.83%.

What about the “% control” value ([2]; noDHT, 1 μM plumbagin, second experiment column) of the same compound?
The value was 95.96%.

And the “% control” value ([2]; noDHT, 2 μM plumbagin, first experiment)?
The value was 42.90%.

What about the Average % control ([2]; noDHT, 2 μM plumbagin) of the same compound?
The Average % control was 40.02%.

What about the “% control” value ([2]; noDHT, 2 μM plumbagin, second experiment column) of the same compound?
Its value is 37.14%.

What about the “% control” value ([2]; noDHT, 4 μM plumbagin, first experiment) of the same compound?
Its value is 10.12%.

And the Average % control ([2]; noDHT, 4 μM plumbagin)?
Its Average % control is 5.84%.

What about the “% control” value ([2]; noDHT, 4 μM plumbagin, second experiment column) of the same compound?
Its value is 1.57%.

And the “% control” value ([2]; noDHT, 8 μM plumbagin, first experiment)?
Its value is 0.45%.

And the Average % control ([2]; noDHT, 8 μM plumbagin)?
The Average % control was 0.33%.

What about the “% control” value ([2]; noDHT, 8 μM plumbagin, second experiment column) of the same compound?
The value was 0.22%.

And the “% control” value ([2]; with DHT, 1 μM plumbagin, first experiment)?
The value was 106.93%.

And the Average % control ([2]; with DHT, 1 μM plumbagin)?
The Average % control was 84.11%.

What about the “% control” value ([2]; with DHT, 1 μM plumbagin, second experiment column) of the same compound?
Its value is 61.29%.

What about the “% control” value ([2]; with DHT, 2 μM plumbagin, first experiment) of the same compound?
The value was 94.18%.

And the Average % control ([2]; with DHT, 2 μM plumbagin)?
The Average % control was 56.67%.

And the “% control” value ([2]; with DHT, 2 μM plumbagin, second experiment column)?
The value was 19.16%.

What about the “% control” value ([2]; with DHT, 4 μM plumbagin, first experiment) of the same compound?
Its value is 22.62%.

And the Average % control ([2]; with DHT, 4 μM plumbagin)?
Its Average % control is 13.76%.

And the “% control” value ([2]; with DHT, 4 μM plumbagin, second experiment column)?
Its value is 4.89%.

And the “% control” value ([2]; with DHT, 8 μM plumbagin, first experiment)?
The value was 0.85%.

What about the Average % control ([2]; with DHT, 8 μM plumbagin) of the same compound?
Its Average % control is 0.62%.

And the “% control” value ([2]; with DHT, 8 μM plumbagin, second experiment column)?
Its value is 0.40%.

And the “efficiency of combination of plumbagin with castration versus either treatment alone” value (PTEN-P2/GFP tumor; plumbagin 1 mg/kg intraperitoneal once/day soon after surgical castration)?
Its value is “more efficient in vivo than either treatment alone”.

What about the “tumor size, castration with plumbagin” value (PTEN-P2/GFP tumor; plumbagin 1 mg/kg ip once/day plus surgical castration) of the same compound?
Its value is “significant decreases in tumor size”.

And the “tumor size, plumbagin only” value (PTEN-P2/GFP tumor; plumbagin 1 mg/kg ip once/day, no castration)?
The value was “did not lead to a marked decrease in tumor size”.
